Where two headings read alike, the source gives them in different places.
Columns and labels:
[1] = tested on: Pyricularia oryzae; type: in vivo; conditions: in vivo
[2] = tested on: Uromyces appendiculatus; experiment: Example B: Uromyces test (beans) / preventive; type: in vivo; conditions: in vivo
[3] = tested on: Pyrenophora teres; experiment: Example D: Pyrenophora test (barley) / preventive; type: in vivo
[4] = tested on: Sphaerotheca fuliginea; experiment: Example A: Sphaerotheca test (cucumber) / preventive; type: in vivo
[5] = Determination of log P values by HPLC on a reverse phase column (C18), EEC-Directive 79/831 Annex V.A8 (Methods A, B, C); type: physicochemical; conditions: for chromatographic logP: reverse phase C18 HPLC column
Description: (§1) Note on the determination of the log P values and mass detection: The stated log P values were determined in accordance with EEC-Directive 79/831 Annex V.A8 by HPLC (High Performance Liquid Chromatography) on a reverse phase column (C18). Agilent 1100 LC system; 50*4.6 Zorbax Eclipse Plus C18 1.8 micron; eluent A: acetonitrile (0.1% formic acid); eluent B: water (0.09% formic acid); linear gradient from 10% acetonitrile to 95% acetonitrile in 4.25 mins, then 95% acetonitrile for a further 1.25 mins; oven temperature 55° C.; flow rate: 2.0 mL/min. The mass detection was effected with an Agilend MSD system.
as §1, with “HP1100;” for “Agilent 1100 LC system;”, “(0.08%” for “(0.09%”, “5%” for “10%”, “1.70 min,” for “4.25 mins,”, “1.00 min;” for “1.25 mins;”, “the Micronass ZQ2000 mass detector from Waters.” for “an Agilend MSD system.”
Note on the determination of the log P values and mass detection: The stated log P values were determined in accordance with EEC-Directive 79/831 Annex V.A8 by UPLC (Ultra Performance Liquid Chromatography) on a reverse phase column (C18). HP1100; 50*2.1 Zorbax Eclipse Plus C18 1.8 micron; eluent A: acetonitrile (0.09% formic acid); eluent B: water (0.1% formic acid); linear gradient from 10% A to 95% A in 3.25 min; oven temperature 40° C.; flow rate: 0.8 mL/min. The mass detection was effected with the LCT Premier or SQD mass detector from Waters.

[6] = tested on: Puccinia recondita; experiment: Example E: Puccinia test (wheat) / preventive; type: in vivo; conditions: in vivo
[7] = tested on: Leptosphaeria nodorum; experiment: Example C: Leptosphaeria test (wheat) / preventive; type: in vivo; conditions: in vivo
[8] = Method B (HPLC, reverse phase C18)
[9] = Method C (HPLC, reverse phase C18)

Q: Which results are given for `CSCC(=O)Nc1cc(-c2c(-c3ccccc3)nn3c2OCCC3)ccn1` [Example 16]?
A: efficacy [1]: 94%; efficacy [2]: 92%; efficacy ([3]; in vivo): 95%; efficacy ([4]; in vivo): 93%; LogP [5, 8]: 1.54; efficacy [6]: 95%

Q: Which results are given for `CC(C)=CCC(=O)Nc1cc(-c2c(-c3ccccc3)nn3c2OCCC3)ccn1` [Example 19]?
A: efficacy [1]: 94%; efficacy [2]: 92%; efficacy ([3]; in vivo): 95%; efficacy ([4]; in vivo): 90%; LogP [5, 8]: 1.91; efficacy [6]: 95%

Q: For `CCOC(=O)Nc1cc(-c2c(-c3ccc(F)cc3)nn3c2OCCC3)ccn1` [Example 23], which efficacy [1] is on record?
A: 94%

Q: And the efficacy [2]?
A: 94%

Q: And the efficacy ([3]; in vivo)?
A: 95%

Q: And the LogP [5, 8]?
A: 1.66

Q: What about the efficacy [6] of the same compound?
A: 95%

Q: What does the source list for `C[C@H](O)C(=O)Nc1cc(-c2c(-c3ccc(F)cc3)nn3c2OCCC3)ccn1` [Example 26]?
A: efficacy [7]: 70%; efficacy [1]: 94%; efficacy [2]: 72%; efficacy ([3]; in vivo): 100%; LogP [5, 8]: 1.31; efficacy [6]: 100%

Q: For `O=C(CCc1ccccc1)Nc1cc(-c2c(-c3ccc(F)cc3)nn3c2OCCC3)ccn1` [Example 29], which efficacy [1] is on record?
A: 94%

Q: What about the efficacy [2] of the same compound?
A: 94%

Q: What about the efficacy ([3]; in vivo) of the same compound?
A: 70%

Q: And the LogP [5, 8]?
A: 2.2

Q: And the efficacy [6]?
A: 95%

Q: For `CC(C(=O)Nc1cc(-c2c(-c3ccc(F)cc3)nn3c2OCCC3)ccn1)c1ccc(F)cc1` (stereo not shown) [Example 32], which efficacy [1] is on record?
A: 94%

Q: What about the efficacy [2] of the same compound?
A: 92%

Q: What about the efficacy ([3]; in vivo) of the same compound?
A: 90%

Q: What about the LogP [5, 8] of the same compound?
A: 2.48

Q: What about the efficacy [6] of the same compound?
A: 100%

Q: What does the source list for `CC(C)=CCC(=O)Nc1cc(-c2c(-c3ccc(F)cc3)nn3c2OCCC3)ccn1` [Example 33]?
A: efficacy [1]: 94%; efficacy [2]: 89%; efficacy ([3]; in vivo): 90%; LogP [5, 8]: 2.07; efficacy [6]: 100%

Q: What does the source list for `CCOC(=O)Nc1cc(-c2c(-c3ccc(F)cc3F)nn3c2OCCC3)ccn1` [Example 38]?
A: efficacy [1]: 94%; efficacy [2]: 89%; efficacy ([3]; in vivo): 95%; LogP [5, 8]: 1.72; efficacy [6]: 90%

Q: What does the source list for `C[C@H](O)C(=O)Nc1cc(-c2c(-c3ccc(F)cc3F)nn3c2OCCC3)ccn1` [Example 41]?
A: efficacy [1]: 94%; efficacy [2]: 94%; efficacy ([3]; in vivo): 90%; LogP [5, 8]: 1.34; efficacy [6]: 95%

Q: What does the source list for `O=C(CC1CC1)Nc1cc(-c2c(-c3ccc(F)cc3F)nn3c2OCCC3)ccn1` [Example 42]?
A: efficacy [7]: 70%; efficacy [1]: 94%; efficacy [2]: 94%; efficacy ([3]; in vivo): 100%; LogP [5, 8]: 1.72; efficacy [6]: 95%

Q: Which results are given for `CC(C(=O)Nc1cc(-c2c(-c3ccc(F)cc3F)nn3c2OCCC3)ccn1)c1ccc(F)cc1` (stereo not shown) [Example 47]?
A: efficacy [1]: 89%; efficacy [2]: 92%; efficacy ([3]; in vivo): 80%; LogP [5, 8]: 2.48; efficacy [6]: 95%

Q: With `CC(C)=CCC(=O)Nc1cc(-c2c(-c3ccc(F)cc3F)nn3c2OCCC3)ccn1` [Example 48] as the compound, how does the efficacy [1] read?
A: 78%

Q: What about the efficacy [2] of the same compound?
A: 86%

Q: And the efficacy ([3]; in vivo)?
A: 70%

Q: What about the LogP [5, 8] of the same compound?
A: 2.1

Q: What about the efficacy [6] of the same compound?
A: 95%

Q: With `CC(=O)N(C(C)=O)c1cc(-c2c(-c3ccccc3)nn3cccnc23)ccn1` [Example 56, N-Acetyl-N-[4-(2-phenylpyrazolo[1,5-a]pyrimidin-3-yl)pyridin-2-yl]acetamide] as the compound, how does the efficacy ([3]; 500 ppm of active ingredient, barley, preventive spray, evaluated 7-9 days after inoculation) read?
A: 95%

Q: What about the efficacy ([4]; 500 ppm of active ingredient, cucumber, preventive spray, evaluated 7 days after inoculation) of the same compound?
A: 80%

Q: And the chromatographic logP ([5]; Method C (HPLC, reverse phase C18), read-out: LogP)?
A: 2.13

Q: What about the chromatographic logP ([5]; pH 2.7, values in the synthesis examples, HPLC, reverse phase C18, read-out: log P (pH 2.7)) of the same compound?
A: 2.13

Q: What does the source list for `CC(=O)N(C(C)=O)c1cc(-c2c(-c3ccc(F)cc3)nn3cccnc23)ccn1` [Example 83]?
A: efficacy ([3]; in vivo): 80%; efficacy ([4]; in vivo): 90%; LogP [5, 9]: 2.22

Q: Which results are given for `CCC(=O)Nc1cc(-c2c(-c3ccsc3)nn3c2OC[Si](C)(C)C3)ccn1` [Example 100]?
A: efficacy [7]: 80%; efficacy [1]: 70%; efficacy ([3]; in vivo): 95%; LogP [5, 9]: 1.88

Q: With `C[Si]1(C)COc2c(-c3ccnc(NC(=O)C4CC4)c3)c(-c3ccsc3)nn2C1` [Example 102] as the compound, how does the efficacy [7] read?
A: 80%

Q: And the efficacy [1]?
A: 70%

Q: And the efficacy ([3]; in vivo)?
A: 100%

Q: What about the LogP [5, 9] of the same compound?
A: 1.97
